Converted amounts (≈) assume the structure as drawn. Where two headings read alike, the source gives them in different places.
What was measured:
PAM4825 producing MIR-1 = test: MIC, engineered isogenic strain; type: cell-based, P. aeruginosa; conditions: MIR-1, class C; BLIs at fixed 4 µg/mL
PAM4907 producing PER-4 = test: MIC, engineered isogenic strain; type: cell-based, P. aeruginosa; conditions: PER-4, class A; BLIs at fixed 4 µg/mL
PAM4874 producing SHV-12 = test: MIC, engineered isogenic strain; type: cell-based, P. aeruginosa; conditions: SHV-12, class A; BLIs at fixed 4 µg/mL
PAM4917 producing NDM-7 = test: MIC, engineered isogenic strain; type: cell-based, P. aeruginosa; conditions: NDM-7, class B; BLIs at fixed 4 µg/mL
PAM4798 producing VIM-2 = test: MIC, engineered isogenic strain; type: cell-based, P. aeruginosa; conditions: VIM-2, class B; BLIs at fixed 4 µg/mL
PAM4196 producing IMP-13 = test: MIC, engineered isogenic strain; type: cell-based, P. aeruginosa; conditions: IMP-13, class B; BLIs at fixed 4 µg/mL
PAM4889 producing IMP-26 = test: MIC, engineered isogenic strain; type: cell-based, P. aeruginosa; conditions: IMP-26, class B; BLIs at fixed 4 µg/mL
PAM4885 producing SPM-1 = test: MIC, engineered isogenic strain; type: cell-based, P. aeruginosa; conditions: SPM-1, class B; BLIs at fixed 4 µg/mL
PAM4880 producing L1 = test: MIC, engineered isogenic strain; type: cell-based, P. aeruginosa; conditions: L1, class B; BLIs at fixed 4 µg/mL
[1] = tested on: carbapenem-resistant strains of Enterobacterales with cefepime-taniborbactam MIC >8 µg/mL; test: MIC testing of CRE with reduced cefepime-taniborbactam susceptibility (Table 6, Fig 1); type: cell-based
Protocol: Isolates were tested for antimicrobial susceptibility using the broth microdilution methodology per CLSI M07 (2018) guidelines ([40]). JMI Laboratories produced frozen-form 96-well panels with cation-adjusted Mueller-Hinton broth as the testing medium. Current CLSI quality assurance practices were followed when performing the susceptibility tests. MIC values were validated by concurrently testing the following CLSI-recommended ([27]) QC reference strains: E. coli NCTC 13353 (CTX-M-15), Klebsiella pneumoniae ATCC BAA-2814 (KPC-3), Klebsiella pneumoniae ATCC BAA-1705 (KPC-2), and K. pneumoniae ATCC 700603 (SHV-18). The inoculum density during susceptibility testing was monitored by bacterial colony counts. Where applicable, QC ranges for tested reference strains were those approved or published by the CLSI ([27]).

SMILES	MIC (PAM4825 producing MIR-1) [µg/mL]	MIC (PAM4907 producing PER-4) [µg/mL]	MIC (PAM4874 producing SHV-12) [µg/mL]	MIC (PAM4917 producing NDM-7) [µg/mL]	MIC (PAM4798 producing VIM-2) [µg/mL]	MIC (PAM4196 producing IMP-13) [µg/mL]	MIC (PAM4889 producing IMP-26) [µg/mL]	MIC (PAM4885 producing SPM-1) [µg/mL]	MIC (PAM4880 producing L1) [µg/mL]	MIC50 [1] [µg/mL]	MIC90 [1] [µg/mL]	MIC50 ([1]; All MBL (N = 129)) [µg/mL]	MIC90 ([1]; All MBL (N = 129)) [µg/mL]	MIC50 ([1]; IMP (N = 20)) [µg/mL]	MIC90 ([1]; IMP (N = 20)) [µg/mL]	MIC50 ([1]; KPC and OXA-48 (N = 12)) [µg/mL]	MIC90 ([1]; KPC and OXA-48 (N = 12)) [µg/mL]	MIC50 ([1]; MBL negative (N = 34)) [µg/mL]	MIC90 ([1]; MBL negative (N = 34)) [µg/mL]	MIC50 ([1]; NDN (N = 101)) [µg/mL]	other results
CO/N=C(\C(=O)N[C@@H]1C(=O)N2C(C(=O)[O-])=C(C[N+]3(C)CCCC3)CS[C@H]12)c1csc(N)n1 [FEP, cefepime]	2 (≈ 4.16 µM)	64 (≈ 133 µM)	64 (≈ 133 µM)	> 64	8 (≈ 16.6 µM)	16 (≈ 33.3 µM)	64 (≈ 133 µM)	> 64	4 (≈ 8.32 µM)	64	> 64	64	> 64	32	> 64	64	> 64	64	> 64	64	MIC90 ([1]; NDN (N = 101)): > 64 µg/mL; MIC50 ([1]; Non-CP CRE (N = 22)): 64 µg/mL; MIC90 ([1]; Non-CP CRE (N = 22)): > 64 µg/mL; MIC50 ([1]; VIM (N = 8)): > 64 µg/mL
C[C@@H](O)[C@H]1C(=O)N2C(C(=O)O)=C(S[C@@H]3CN[C@H](C(=O)N(C)C)C3)[C@H](C)[C@H]12 [MEM, meropenem]	0.5 (≈ 1.3 µM)	0.125 (≈ 0.326 µM)	0.25 (≈ 0.652 µM)	32 (≈ 83.4 µM)	8 (≈ 20.9 µM)	1 (≈ 2.61 µM)	8 (≈ 20.9 µM)	32 (≈ 83.4 µM)	32 (≈ 83.4 µM)	> 64	> 64	> 64	> 64	16	64	32	> 64	16	> 64	> 64	MIC90 ([1]; NDN (N = 101)): > 64 µg/mL; MIC50 ([1]; Non-CP CRE (N = 22)): 16 µg/mL; MIC90 ([1]; Non-CP CRE (N = 22)): 32 µg/mL; MIC50 ([1]; VIM (N = 8)): > 64 µg/mL

Reference: PMC10648875 (Antimicrobial Agents and Chemotherapy, 2023)
